Measurements published in the supplement of paper PMC4862054.
Where “and” joins values, the source holds several entries; their conditions need not be identical. Equal entries are not always repeated.

Assays:
Details in all cases: incubation time: 72 h
[1] = tested on: MDA-MB-231; test: drug sensitivity score (DSS), CellTox Green (DSS (AUC-based score)); higher = stronger drug effect (viability inhibition or cytotoxicity); extreme values may be limits of the assay
How it was run: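 The drug sensitivity score was computed from the area under the fitted dose-response curve. Breast cancer cell lines in 20 µl suspension went into 384-well plates holding compound at 5 concentrations (10-fold steps over a 10,000-fold, compound-specific range) for 72 h of incubation. CellTox Green fluorescence (485/520 nm) was read before CellTiter-Glo luminescence, the latter after 10 min at room temperature, and each plate was normalised to 0.1 % DMSO and a positive kill control.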

[2] = tested on: MDA-MB-468; test: drug sensitivity score (DSS), CellTiter-Blue viability (DSS (AUC-based score)); higher = stronger viability inhibition; extreme values may be limits of the assay
How it was run: (§1)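 A 72 h incubation followed seeding of breast cancer cell lines (20 µl suspension) into 384-well plates holding compound in a 5- or 9-concentration series. CellTiter-Blue, 2.5 µl per well, was incubated 2 h at 37 °C, and fluorescence was measured at 560/590 nm. Normalisation on every plate used 0.1 % DMSO and a positive kill control. From the fitted dose-response curve, the area under the curve was taken as the drug sensitivity score.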

[3] = tested on: HCC1143; test: as above
How it was run: as §1

[4] = tested on: SK-BR-3; test: as above
How it was run: as §1

[5] = tested on: CAL-148; test: normalised viability (% of control), CellTiter-Blue; higher = more viable cells (about 100 = DMSO control)
How it was run: (§2)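 384-well plates were pre-loaded with compound in 5 µl medium before 20 µl of breast cancer cell suspension was seeded. Following 72 h incubation, 2.5 µl CellTiter-Blue reagent was added for 2 h at 37 °C. Fluorescence was read at 560/590 nm and plates were normalised to vehicle (100) and a positive kill control (0), checked by Z'-factor. Normalised viability is reported at a single listed concentration of the series.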

[6] = tested on: DU-4475; test: as above
How it was run: as §2

[7] = tested on: CAL-51; test: as above
How it was run: as §2

[8] = tested on: MDA-MB-468; test: as above
How it was run: as §2

[9] = tested on: HCC1143; test: as above
How it was run: as §2

[10] = tested on: SK-BR-3; test: as above
How it was run: as §2

[11] = tested on: Hs578T; test: as above
How it was run: as §2

[12] = tested on: MDA-MB-436; test: as above
How it was run: as §2

[13] = tested on: CAL-120; test: as above
How it was run: as §2

[14] = tested on: MDA-MB-231; test: as above
How it was run: as §2

[15] = tested on: HDQ-P1; test: as above
How it was run: as §2

[16] = tested on: CAL-85-1; test: as above
How it was run: as §2

[17] = tested on: HCC1599; test: as above
How it was run: as §2

[18] = tested on: HCC1937; test: as above
How it was run: as §2

[19] = tested on: MDA-MB-453; test: as above
How it was run: as §2

[20] = tested on: BT-549; test: as above
How it was run: as §2

[21] = tested on: MFM-223; test: as above
How it was run: as §2

[22] = tested on: BT-474; test: as above
How it was run: as §2

COc1cc(OC2CCN(C)CC2)ccc1Nc1ncc2c(n1)n(C1CCCC1)c(=O)n2C [AZ 3146]
Details	drug sensitivity score
[1]	0
[2]	0
[3]	0
[4]	2.13

normalised viability [%]
Details	3 nM	10 nM	30 nM	100 nM	1000 nM	10000 nM
[5]	111	–	102	115	–	–
[6]	111	–	90	100	–	–
[7]	97.5	–	88.7	87.8	–	–
[8]	–	109	–	–	103	53.3
[9]	–	132	–	–	126	95.3
[10]	–	104	–	–	86.8	74.5
[11]	–	111	–	–	109	80.1
[12]	–	102	–	–	94.4	85.6
[13]	–	115	–	–	109	76.5
[14]	–	96.5	–	–	82.3	45.8
[15]	80.8	–	100	118	–	–
[16]	111	–	109	102	–	–
[17]	–	107	–	–	121	111
[18]	–	124	–	–	98	92
[19]	96	–	97.7	85.3	–	–
[20]	–	75.4	–	–	89.5	62
[21]	–	102	–	–	102	84.4
[22]	–	110	–	–	96.2	122

CN(C)c1nc(N(C)C)nc(N(C)C)n1 [Altretamine]
Details	drug sensitivity score
[1]	0
[2]	0
[3]	0
[4]	0

normalised viability [%]
Details	3 nM	10 nM	30 nM	100 nM	1000 nM	10000 nM
[5]	99.5	–	96.7	104	–	–
[6]	94.6	–	83.6	105	–	–
[7]	113	–	108	105	–	–
[8]	–	94.5	–	–	104	103
[9]	–	74.7	–	–	88.4	91.2
[10]	–	106	–	–	113	100
[11]	–	107	–	–	96.9	102
[12]	–	102	–	–	99.5	85.5
[13]	–	88.6	–	–	98.5	105
[14]	–	99.7	–	–	90.9	106
[15]	107	–	92.7	112	–	–
[16]	105	–	91.5	119	–	–
[17]	–	95.7	–	–	98.2	73.5
[18]	–	100	–	–	96.3	88.6
[19]	119	–	99.5	97.4	–	–
[20]	–	89.3	–	–	78.4	93.4
[21]	–	96.2	–	–	98	89.6
[22]	–	117	–	–	134	138

O=C(/C=C/c1cccc(S(=O)(=O)Nc2ccccc2)c1)NO [Belinostat]
Details	drug sensitivity score
[1]	17.8
[2]	8.06
[3]	10.3
[4]	19

normalised viability [%]
Details	3 nM	10 nM	30 nM	100 nM	1000 nM	10000 nM
[5]	90.7	–	97.2	81.7	–	–
[6]	99.9	–	106	98.7	–	–
[7]	101	–	103	115	–	–
[8]	–	112	–	–	66.9	16.3
[9]	–	99.4	–	–	54	12.9
[10]	–	86.9	–	–	21.6	3.92
[11]	–	114	–	–	74.7	7.02
[12]	–	116	–	–	38.8	17.4
[13]	–	87.7	–	–	20.5	3.33
[14]	–	96.1	–	–	40.7	7.79
[15]	90.4	–	90.8	72.5	–	–
[16]	95.7	–	79.5	86.8	–	–
[17]	–	90	–	–	33.2	15.4
[18]	–	46.4	–	–	41.4	15.1
[19]	90.7	–	82.5	64.6	–	–
[20]	–	108	–	–	67.8	13.1
[21]	–	87.8	–	–	37.2	11.1
[22]	–	106	–	–	47.5	2.17

O=P1(N(CCCl)CCCl)NCCCO1 (stereo not given) [Cyclophosphamide]
Details	drug sensitivity score
[1]	0
[2]	0
[3]	0
[4]	0

normalised viability [%]
Details	12 nM	40 nM	120 nM	400 nM	4000 nM	40000 nM
[5]	100	–	102	109	–	–
[6]	110	–	90.9	113	–	–
[7]	111	–	99	111	–	–
[8]	–	102	–	–	100	106
[9]	–	84.1	–	–	93.6	87.3
[10]	–	105	–	–	102	110
[11]	–	107	–	–	108	112
[12]	–	108	–	–	83.7	83.9
[13]	–	97.1	–	–	95.7	83.8
[14]	–	101	–	–	96.9	96.9
[15]	119	–	109	104	–	–
[16]	98.8	–	89.9	97.5	–	–
[17]	–	89.4	–	–	78	91.5
[18]	–	98.3	–	–	111	98.5
[19]	105	–	105	111	–	–
[20]	–	94.3	–	–	94.9	95.2
[21]	–	92.1	–	–	98.9	98.5
[22]	–	121	–	–	119	127

C=C1C[C@@H]2[C@H](CC[C@]3(C)C(=O)CC[C@@H]23)[C@@]2(C)C=CC(=O)C=C12 [Exemestane]
Details	drug sensitivity score
[1]	0
[2]	0
[3]	0
[4]	0

normalised viability [%]
Details	3 nM	10 nM	30 nM	100 nM	1000 nM	10000 nM
[5]	95.1	–	88.7	87	–	–
[6]	95.1	–	98	79.4	–	–
[7]	101	–	95.8	86.5	–	–
[8]	–	109	–	–	112	96.5
[9]	–	88.7	–	–	97.8	82.8
[10]	–	85.2	–	–	101	79.3
[11]	–	112	–	–	110	100
[12]	–	112	–	–	87.4	96.2
[13]	–	96.1	–	–	92.7	84
[14]	–	101	–	–	98.1	124
[15]	94.5	–	98.5	97.1	–	–
[16]	90.6	–	81.8	89.8	–	–
[17]	–	81.7	–	–	86.6	77
[18]	–	87.7	–	–	88.3	87.8
[19]	103	–	87.3	97.8	–	–
[20]	–	83.5	–	–	108	85.9
[21]	–	90.6	–	–	101	108
[22]	–	111	–	–	93.7	103

COc1cc2ncnc(Nc3ccc(F)c(Cl)c3)c2cc1OCCCN1CCOCC1 [Gefitinib]
Details	drug sensitivity score
[1]	0.542
[2]	9.52 and 7.51
[3]	0
[4]	6.49 and 10.4

Details	normalised viability
[5], 3 nM	83% and 87.9%
[5], 30 nM	96.2% and 85.9%
[5], 100 nM	94.4% and 90.2%
[6], 3 nM	89.8% and 92.1%
[6], 30 nM	85.6% and 75.6%
[6], 100 nM	99.3% and 83.1%
[7], 3 nM	107% and 110%
[7], 30 nM	104% and 106%
[7], 100 nM	108% and 102%
[8], 10 nM	97.6% and 107%
[8], 1000 nM	57.8% and 65.9%
[8], 10000 nM	38.7% and 38.4%
[9], 10 nM	65.4% and 86.2%
[9], 1000 nM	64.3% and 84.5%
[9], 10000 nM	68.2% and 68.7%
[10], 10 nM	88.1% and 97.7%
[10], 1000 nM	67.2%
[10], 10000 nM	20.8% and 20.5%
[11], 10 nM	100% and 105%
[11], 1000 nM	91.4% and 112%
[11], 10000 nM	77.4% and 74.4%
[12], 10 nM	90.6% and 82.3%
[12], 1000 nM	88.3% and 81.4%
[12], 10000 nM	69.9% and 62%
[13], 10 nM	76.8% and 88.1%
[13], 1000 nM	76% and 85.9%
[13], 10000 nM	60% and 62.1%
[14], 10 nM	83.8% and 98.3%
[14], 1000 nM	94.6% and 114%
[14], 10000 nM	81.1% and 77%
[15], 3 nM	88.5% and 105%
[15], 30 nM	87% and 110%
[15], 100 nM	91% and 109%
[16], 3 nM	90.7% and 85.5%
[16], 30 nM	84.7% and 89.6%
[16], 100 nM	88.5% and 85.5%
[17], 10 nM	90.8% and 106%
[17], 1000 nM	75.2% and 81.4%
[17], 10000 nM	64.6% and 70.1%
[18], 1000 nM	101% and 100%
[18], 10000 nM	61.1% and 79.5%
[19], 3 nM	113% and 111%
[19], 30 nM	85.4% and 90.8%
[19], 100 nM	88.2% and 89.2%
[20], 10 nM	92.3% and 89.6%
[20], 1000 nM	89% and 101%
[20], 10000 nM	65.2% and 59.6%
[21], 10 nM	89.2% and 87.1%
[21], 1000 nM	92.2% and 89%
[21], 10000 nM	71.9% and 64.2%
[22], 10 nM	104% and 116%
[22], 1000 nM	58.7% and 65.5%
[22], 10000 nM	27.3% and 22.7%

O=C(Nc1ccncc1)C(=O)c1cn(Cc2ccc(Cl)cc2)c2ccccc12 [Indibulin]
Details	drug sensitivity score
[1]	8.72
[2]	15.3
[3]	16.4
[4]	25.9

normalised viability [%]
Details	3 nM	10 nM	30 nM	100 nM	1000 nM	10000 nM
[5]	95.4	–	92.1	94.5	–	–
[6]	111	–	93.7	123	–	–
[7]	106	–	104	102	–	–
[8]	–	95.7	–	–	49.8	36.7
[9]	–	80.7	–	–	41.1	41
[10]	–	94.5	–	–	19.9	20.6
[11]	–	110	–	–	56.3	18.5
[12]	–	111	–	–	41.4	66.3
[13]	–	85.7	–	–	35.9	28.1
[14]	–	103	–	–	20.3	16.1
[15]	90.5	–	87.7	74.8	–	–
[16]	102	–	91.3	95	–	–
[17]	–	113	–	–	124	103
[18]	–	74.5	–	–	21.1	23.1
[19]	97.2	–	61.7	65.5	–	–
[20]	–	103	–	–	31.4	23.5
[21]	–	112	–	–	63.7	68.5
[22]	–	99.9	–	–	47.2	39.2
